Results taken from patent publication US20200078459A1, “NEAR INFRARED (NIR) PHOTODYNAMIC THERAPY (PDT) IN COMBINATION WITH CHEMOTHERAPY” (Health Research, Inc., priority 2016, published 2020).
Like-named read-outs stand apart in the source and are kept apart here.

Tests used:
[1] = tested on: non-small cell carcinoma (NSCLC) xenografts; conditions: for antitumor activity of the alone drug: no PDT
Description: 3) Tumor transplantation: the xenografts used for antitumor activity were transplanted subcutaneously. The treatment was initiated 7-10 days post transplantation. 4) Tumor measurement: two axes (mm) of tumor (L, longest axis; W, shortest axis) were measured with the aid of a Vernier caliper. Tumor weight (mg) was estimated as a formula tumor weight ½ (L×W2). Tumor measurements were taken after the scabbing healed post PDT and at least three times a week for post therapy and twice a week therefore. 5) Tumor regression: complete tumor regression (CR) was defined as the inability to detect tumor by palpation at the initial site of tumor appearance for more than two months post therapy. […] Partial tumor regression (PR) was defined as ≥50% reduction in initial tumor size. Normally, 5 mice per treatment group were included in these experiment groups and repeated at least twice.
PDT of Subcutaneous Tumors—Tumor bearing mice are injected via the tail vein with HPPH or derivatives at doses that are non-toxic unless exposed to light. For tail vein injections, mice were gently restrained in approved holders and their tails were briefly (less than 1 minute) dipped in warm sterile water (˜40° C.). Photosensitizers are injected in a volume of less than 0.2 mL into the tail vein using a 27-gauge needle.
The photosensitizers, at 24 hours (or the optimal time determined by optical imaging) after administration of HPPH or derivatives, the animals were partially restrained allowing leg movement, in specially designed holders without anesthesia.
Tumors are exposed to visible light (1 cm diameter) at power densities of less than 100 mW/cm^2. The light sources are either a dye laser (with a tunable range of 600 to 800 nm), at the optimal excitation wavelength for the individual photosensitizer; or a pulsed laser with a range of 460 to 800 nm. The treatment will vary, depending on the light dose (J/cm^2) and fluence rate (mW/cm^2) required, but usually is for approximately 30 minutes.
After light exposure, the mice are monitored closely for at least 1 hour and then daily until the re-growing tumors reach no more than 2 cm in the greatest dimension or for a maximum of 60 days (post treatment) at which time they are euthanized. All animals will be euthanized within 90 days of tumor implantation.

[2] = tested on: FaDu head and neck cancer xenografts; test: PDT response and antitumor activity in SCID mice bearing FaDu head and neck cancer xenografts; assay type: in vivo
Description: First dose of irinotecan: 1 h post-PDT treatment.
Human head and neck cancer xenografts (FaDu and H&N 85-1)
The treatment was initiated 7-10 post transplantation.

[3] = patients advised to be away from sunlight at least 6-8 weeks after the light treatment; cited from earlier work
[4] = Skin phototoxicity of the photosensitizers; assay type: in vivo; conditions: in contrast to most of the clinically approved PS
[5] = tested on: skin cancer (basal cell carcinoma) early lung cancer and esophageal cancers; test: Phase I human clinical trials of HPPH; assay type: in vivo
[6] = 5 mg/kg weekly×3 doses, in combination with HPPH or Photobac with PDT, 8/10 mice

COc1cccc2c1C(=O)c1c(O)c3c(c(O)c1C2=O)C[C@@](O)(C(=O)CO)C[C@@H]3O[C@H]1C[C@H](N)[C@H](O)[C@H](C)O1 [Doxorubicin, doxorubicin]
CR (complete tumor regression) [1, 6]: 80% | antitumor activity of the alone drug ([1]; 5 mg/kg weekly×3 doses): not effective | toxicity ([1]; mouse, in vivo): no significant effects

CCc1c2c(nc3ccc(OC(=O)N4CCC(N5CCCCC5)CC4)cc13)-c1cc3c(c(=O)n1C2)COC(=O)[C@]3(O)CC [Irinotecan, irinotecan]
CR (complete tumor regression) ([2]; 100 mg/kg weekly×4 doses, in combination with HPPH and PDT, 11/15 mice): 73% | toxicity ([2]; PDT ± chemotherapy, in the used doses): no significant effects | antitumor activity of the alone drug ([2]; drug alone, 100 mg/kg weekly×4 doses, no PDT): not effective | CR (complete tumor regression) ([2]; in combination with Photobac (PDT), 3/5 mice): 60%

Photofrin
skin phototoxicity in patients [3]: severe skin phototoxicity

N.N.[Cl][Pt][Cl] [Cisplatin, cisplatin]
CR (complete tumor regression) [1, 6]: 80% | antitumor activity of the alone drug ([1]; 5 mg/kg weekly×3 doses): not effective

CCCCOC(C)c1c(C)c2cc3nc(c4c5[nH]c(cc6nc(cc1[nH]2)C(C)C6CC)c(C)c5C(=O)N(CCCC)C4=O)C(CCC(=O)OC)C3C (centres unmarked) [Photobac, 3-(1′-butyloxy)ethyl-3-deacetyl-bacteriopurpurin-18-N-butyl-imide methyl ester]
skin photo toxicity [4]: do not produce any skin photo toxicity

CCCCCCOC(C)c1c(C)c2cc3nc(c4c5[nH]c(cc6nc(cc1[nH]2)C(C)=C6CC)c(C)c5C(=O)C4)[C@@H](CCC(=O)O)[C@@H]3C (some centres unmarked) [HPPH, 3-(1′-hexyloxy)ethyl-3-devinylpyropheopphorbide-a]
CR (complete tumor regression) ([1]; PDT with HPPH, without chemotherapy): 20% | skin photo toxicity [4]: do not produce any skin photo toxicity | effectiveness in treatment of cancer [5]: effective
